% of control and % of inhibition data for ten compounds are collected here from ChEMBL document CHEMBL5465560, “Selectivity Literature for EUbOPEN Chemogenomic Library” (2024).

In experiment [1] the test system is Mast/stem cell growth factor receptor Kit (Homo sapiens), P10721 [A829P]. The note with it: at 10 µM.
Experiment [2] addresses T1, Mitogen-activated protein kinase 15 (Homo sapiens) (UniProt Q8TD08).
T1 sequence (whole entry): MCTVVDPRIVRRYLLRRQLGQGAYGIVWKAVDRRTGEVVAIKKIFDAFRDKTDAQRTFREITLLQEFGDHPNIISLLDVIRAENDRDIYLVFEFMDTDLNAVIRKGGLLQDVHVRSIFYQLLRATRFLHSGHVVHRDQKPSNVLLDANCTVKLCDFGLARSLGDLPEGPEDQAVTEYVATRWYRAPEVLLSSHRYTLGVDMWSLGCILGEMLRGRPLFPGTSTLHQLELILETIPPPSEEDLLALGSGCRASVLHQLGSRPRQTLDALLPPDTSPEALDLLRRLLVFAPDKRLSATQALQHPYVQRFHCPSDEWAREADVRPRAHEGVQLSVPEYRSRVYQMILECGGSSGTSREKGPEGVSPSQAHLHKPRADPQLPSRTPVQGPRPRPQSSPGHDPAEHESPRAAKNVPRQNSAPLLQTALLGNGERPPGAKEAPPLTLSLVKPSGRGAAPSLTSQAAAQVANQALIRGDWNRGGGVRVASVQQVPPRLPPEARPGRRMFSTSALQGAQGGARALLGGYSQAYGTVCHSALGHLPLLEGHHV
Briefly: Selectivity interaction (Ambit KINOMEscan and KiNATiv profiling in Jurkat cells) EUB0000090b MAPK15. The class given is cell-based. The note with it: at 1 µM.

The target in experiment [3] is Serine/threonine-protein kinase/endoribonuclease IRE1 (Homo sapiens) (UniProt O75460). Nature of the experiment: Selectivity interaction (KinomeScan (DiscoverX)) EUB0001049a ERN1. The note with it: at 1 µM.
Serine/threonine-protein kinase/endoribonuclease IRE1 (Homo sapiens), sequence (O75460 19-977 limits assumed): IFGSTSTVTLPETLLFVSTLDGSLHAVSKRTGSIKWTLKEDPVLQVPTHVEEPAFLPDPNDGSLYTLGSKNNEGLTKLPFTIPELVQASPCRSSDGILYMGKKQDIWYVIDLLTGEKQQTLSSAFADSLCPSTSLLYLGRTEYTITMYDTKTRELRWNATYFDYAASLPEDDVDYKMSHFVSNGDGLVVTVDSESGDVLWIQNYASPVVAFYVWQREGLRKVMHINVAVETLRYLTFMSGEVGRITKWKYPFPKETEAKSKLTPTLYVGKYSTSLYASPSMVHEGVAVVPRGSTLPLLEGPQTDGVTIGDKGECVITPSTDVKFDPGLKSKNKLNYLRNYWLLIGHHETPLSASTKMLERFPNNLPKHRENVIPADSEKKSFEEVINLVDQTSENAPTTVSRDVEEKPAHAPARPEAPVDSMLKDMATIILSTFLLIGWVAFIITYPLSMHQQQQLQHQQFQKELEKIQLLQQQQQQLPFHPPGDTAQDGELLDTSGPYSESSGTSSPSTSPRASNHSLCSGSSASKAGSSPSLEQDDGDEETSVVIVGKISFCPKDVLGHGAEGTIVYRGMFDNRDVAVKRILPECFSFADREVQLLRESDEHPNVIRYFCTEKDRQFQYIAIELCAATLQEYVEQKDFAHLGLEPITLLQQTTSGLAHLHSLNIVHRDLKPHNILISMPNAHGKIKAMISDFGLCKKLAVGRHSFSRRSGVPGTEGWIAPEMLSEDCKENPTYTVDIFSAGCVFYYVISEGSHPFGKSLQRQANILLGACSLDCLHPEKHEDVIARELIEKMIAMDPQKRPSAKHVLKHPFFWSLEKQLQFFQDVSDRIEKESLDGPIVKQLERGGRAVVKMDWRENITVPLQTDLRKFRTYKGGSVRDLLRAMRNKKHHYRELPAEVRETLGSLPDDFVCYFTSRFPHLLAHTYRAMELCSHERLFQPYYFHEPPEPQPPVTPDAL
Experiment [4] deals with Dual specificity protein kinase CLK3 (Homo sapiens, UniProt P49761). Nature of the experiment: Selectivity interaction (KinomeScan (DiscoverX)) EUB0001049a CLK3. The note with it: at 1 µM.
Dual specificity protein kinase CLK3, sequence (P49761 whole entry, looked up, canonical isoform): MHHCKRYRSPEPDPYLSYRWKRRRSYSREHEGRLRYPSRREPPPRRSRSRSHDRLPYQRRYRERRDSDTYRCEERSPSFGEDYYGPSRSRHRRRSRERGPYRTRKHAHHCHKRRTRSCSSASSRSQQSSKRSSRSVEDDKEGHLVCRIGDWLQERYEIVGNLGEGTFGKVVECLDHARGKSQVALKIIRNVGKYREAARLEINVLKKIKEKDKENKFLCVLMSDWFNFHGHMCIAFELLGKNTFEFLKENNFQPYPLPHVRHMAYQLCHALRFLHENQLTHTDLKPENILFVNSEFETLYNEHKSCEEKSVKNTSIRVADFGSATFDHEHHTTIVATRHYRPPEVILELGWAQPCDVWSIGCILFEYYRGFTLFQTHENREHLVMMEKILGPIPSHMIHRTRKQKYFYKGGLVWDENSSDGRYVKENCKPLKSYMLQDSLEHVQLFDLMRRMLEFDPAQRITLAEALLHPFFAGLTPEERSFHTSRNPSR
The target of experiment [5] is T2, Phosphorylase b kinase gamma catalytic chain, liver/testis isoform (Homo sapiens) (UniProt P15735).
T2 sequence (whole entry): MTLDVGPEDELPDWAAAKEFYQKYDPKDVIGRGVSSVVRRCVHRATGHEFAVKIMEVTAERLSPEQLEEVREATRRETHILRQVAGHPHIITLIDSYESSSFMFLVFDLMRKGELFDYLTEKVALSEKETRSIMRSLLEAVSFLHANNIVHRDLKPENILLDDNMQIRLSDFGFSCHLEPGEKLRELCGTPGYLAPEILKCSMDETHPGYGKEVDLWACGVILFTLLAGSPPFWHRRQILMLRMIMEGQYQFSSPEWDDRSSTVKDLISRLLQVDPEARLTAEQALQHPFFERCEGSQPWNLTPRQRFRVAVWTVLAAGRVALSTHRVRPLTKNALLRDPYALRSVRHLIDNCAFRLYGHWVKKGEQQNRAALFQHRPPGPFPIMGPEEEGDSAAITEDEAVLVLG
Briefly: Selectivity interaction (KinomeScan (DiscoverX)) EUB0000655a PHKG2. The note with it: at 10 µM.

Experiment [6] deals with T3, Tyrosine-protein kinase TXK (Homo sapiens) (UniProt P42681).
T3 sequence (whole entry): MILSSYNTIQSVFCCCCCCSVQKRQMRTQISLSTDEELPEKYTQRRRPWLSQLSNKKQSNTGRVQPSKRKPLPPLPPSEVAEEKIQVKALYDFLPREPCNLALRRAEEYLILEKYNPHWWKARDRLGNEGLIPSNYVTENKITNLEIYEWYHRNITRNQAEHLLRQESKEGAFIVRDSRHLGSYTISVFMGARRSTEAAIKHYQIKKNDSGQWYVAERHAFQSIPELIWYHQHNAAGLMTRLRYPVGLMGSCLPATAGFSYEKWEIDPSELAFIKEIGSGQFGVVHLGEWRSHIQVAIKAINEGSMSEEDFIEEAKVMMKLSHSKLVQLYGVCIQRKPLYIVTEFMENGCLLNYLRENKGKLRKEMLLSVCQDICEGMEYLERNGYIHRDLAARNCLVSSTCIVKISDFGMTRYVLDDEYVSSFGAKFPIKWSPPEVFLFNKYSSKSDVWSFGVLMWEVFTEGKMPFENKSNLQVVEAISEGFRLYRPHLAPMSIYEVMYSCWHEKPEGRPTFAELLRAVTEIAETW
Briefly: Selectivity interaction (KinomeScan (DiscoverX)) EUB0000045b TXK.

The target in experiment [7] is Leukocyte tyrosine kinase receptor (Homo sapiens, UniProt P29376). Nature of the experiment: Selectivity interaction (Kinase panel (Z-LYTE Assay)) EUB0001632a LTK. The note with it: at 10 µM.
Leukocyte tyrosine kinase receptor, sequence (P29376 whole entry): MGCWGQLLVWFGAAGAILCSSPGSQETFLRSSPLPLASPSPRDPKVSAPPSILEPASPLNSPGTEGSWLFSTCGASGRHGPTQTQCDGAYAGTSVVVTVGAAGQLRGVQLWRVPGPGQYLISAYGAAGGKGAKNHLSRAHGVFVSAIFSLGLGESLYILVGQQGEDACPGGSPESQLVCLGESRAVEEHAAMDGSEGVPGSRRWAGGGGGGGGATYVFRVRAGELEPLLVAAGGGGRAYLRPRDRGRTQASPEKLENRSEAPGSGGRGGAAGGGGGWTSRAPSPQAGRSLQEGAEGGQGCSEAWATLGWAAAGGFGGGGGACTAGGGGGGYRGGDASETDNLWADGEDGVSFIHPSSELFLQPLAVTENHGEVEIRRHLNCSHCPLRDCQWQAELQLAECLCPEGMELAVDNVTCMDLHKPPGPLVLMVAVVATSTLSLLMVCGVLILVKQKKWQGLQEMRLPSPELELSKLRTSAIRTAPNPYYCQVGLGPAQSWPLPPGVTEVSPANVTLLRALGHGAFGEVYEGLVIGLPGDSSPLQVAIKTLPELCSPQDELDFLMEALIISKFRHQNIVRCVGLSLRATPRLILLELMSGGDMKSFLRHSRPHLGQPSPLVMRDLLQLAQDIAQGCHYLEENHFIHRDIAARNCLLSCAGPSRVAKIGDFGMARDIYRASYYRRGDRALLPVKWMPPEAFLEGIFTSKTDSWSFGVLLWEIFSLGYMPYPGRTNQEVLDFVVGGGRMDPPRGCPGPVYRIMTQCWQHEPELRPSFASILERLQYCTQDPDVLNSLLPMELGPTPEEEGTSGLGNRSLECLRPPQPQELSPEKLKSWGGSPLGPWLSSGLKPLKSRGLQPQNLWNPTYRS
For experiment [8], the target named is Protein kinase C delta type (Homo sapiens) (UniProt Q05655). Briefly: Selectivity interaction (SelectScreen profiling (Invitrogen)) EUB0000607a PRKCD. The note with it: at 2 µM.
Protein kinase C delta type (Homo sapiens), sequence (Q05655 whole entry, looked up): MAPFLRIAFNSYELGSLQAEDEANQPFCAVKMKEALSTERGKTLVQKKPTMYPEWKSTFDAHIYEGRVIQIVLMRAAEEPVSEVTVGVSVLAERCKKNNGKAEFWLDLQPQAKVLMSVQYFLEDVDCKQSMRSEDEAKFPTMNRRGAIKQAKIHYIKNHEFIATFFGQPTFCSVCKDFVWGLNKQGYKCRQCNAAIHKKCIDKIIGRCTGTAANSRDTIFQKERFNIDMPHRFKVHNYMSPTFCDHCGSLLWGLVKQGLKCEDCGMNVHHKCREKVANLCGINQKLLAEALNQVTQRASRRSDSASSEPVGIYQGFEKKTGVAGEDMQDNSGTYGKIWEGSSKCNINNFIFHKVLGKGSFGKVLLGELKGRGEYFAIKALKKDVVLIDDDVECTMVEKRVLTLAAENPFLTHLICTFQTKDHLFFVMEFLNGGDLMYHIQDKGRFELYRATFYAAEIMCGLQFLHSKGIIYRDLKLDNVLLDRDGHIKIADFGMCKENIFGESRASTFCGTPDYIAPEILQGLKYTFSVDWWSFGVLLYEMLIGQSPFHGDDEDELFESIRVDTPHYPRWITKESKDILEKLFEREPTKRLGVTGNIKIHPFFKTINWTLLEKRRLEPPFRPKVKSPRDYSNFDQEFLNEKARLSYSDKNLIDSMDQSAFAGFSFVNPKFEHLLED
Experiment [9] addresses Serine/threonine-protein kinase 38 (Homo sapiens) (UniProt Q15208). Nature of the experiment: Selectivity interaction (ActivX KiNativ screen (kinase selectivity in THP-1 cell lysates)) EUB0000639a STK38. It is filed as subcellular. The note with it: lysate.
Experiment [10] addresses T2, Phosphorylase b kinase gamma catalytic chain, liver/testis isoform (Homo sapiens). Nature of the experiment: Selectivity interaction (Kinase panel (Invitrogen)) EUB0000639a PHKG2. The note with it: at 200 nM.
Experiment [11] addresses T4, Serine/threonine-protein kinase RIO1 (Homo sapiens) (UniProt Q9BRS2).
T4 sequence (whole entry): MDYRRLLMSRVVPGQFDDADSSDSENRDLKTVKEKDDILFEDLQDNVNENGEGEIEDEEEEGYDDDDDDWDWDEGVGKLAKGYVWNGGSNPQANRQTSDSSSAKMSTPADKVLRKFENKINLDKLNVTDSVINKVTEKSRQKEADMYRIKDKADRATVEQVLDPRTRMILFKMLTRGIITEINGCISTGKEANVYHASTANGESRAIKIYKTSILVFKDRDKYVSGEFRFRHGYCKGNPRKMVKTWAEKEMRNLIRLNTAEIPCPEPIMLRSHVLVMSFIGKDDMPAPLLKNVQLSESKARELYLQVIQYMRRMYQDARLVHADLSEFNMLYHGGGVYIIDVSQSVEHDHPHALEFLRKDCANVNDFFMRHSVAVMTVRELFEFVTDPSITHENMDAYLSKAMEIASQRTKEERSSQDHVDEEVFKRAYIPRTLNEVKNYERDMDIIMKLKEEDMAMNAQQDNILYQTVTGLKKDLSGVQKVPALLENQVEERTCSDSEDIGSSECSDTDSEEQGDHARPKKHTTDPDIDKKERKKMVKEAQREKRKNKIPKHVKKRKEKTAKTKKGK
Nature of the experiment: Selectivity interaction (KinomeScan (DiscoverX)) EUB0000595a RIOK1. The note with it: at 10 µM.

The target of experiment [12] is Ribosomal protein S6 kinase alpha-1 (Homo sapiens, UniProt Q15418). Nature of the experiment: Selectivity interaction (KinomeScan (DiscoverX)) EUB0000595a RPS6KA1. The note with it: at 10 µM.
Ribosomal protein S6 kinase alpha-1, sequence (Q15418 whole entry): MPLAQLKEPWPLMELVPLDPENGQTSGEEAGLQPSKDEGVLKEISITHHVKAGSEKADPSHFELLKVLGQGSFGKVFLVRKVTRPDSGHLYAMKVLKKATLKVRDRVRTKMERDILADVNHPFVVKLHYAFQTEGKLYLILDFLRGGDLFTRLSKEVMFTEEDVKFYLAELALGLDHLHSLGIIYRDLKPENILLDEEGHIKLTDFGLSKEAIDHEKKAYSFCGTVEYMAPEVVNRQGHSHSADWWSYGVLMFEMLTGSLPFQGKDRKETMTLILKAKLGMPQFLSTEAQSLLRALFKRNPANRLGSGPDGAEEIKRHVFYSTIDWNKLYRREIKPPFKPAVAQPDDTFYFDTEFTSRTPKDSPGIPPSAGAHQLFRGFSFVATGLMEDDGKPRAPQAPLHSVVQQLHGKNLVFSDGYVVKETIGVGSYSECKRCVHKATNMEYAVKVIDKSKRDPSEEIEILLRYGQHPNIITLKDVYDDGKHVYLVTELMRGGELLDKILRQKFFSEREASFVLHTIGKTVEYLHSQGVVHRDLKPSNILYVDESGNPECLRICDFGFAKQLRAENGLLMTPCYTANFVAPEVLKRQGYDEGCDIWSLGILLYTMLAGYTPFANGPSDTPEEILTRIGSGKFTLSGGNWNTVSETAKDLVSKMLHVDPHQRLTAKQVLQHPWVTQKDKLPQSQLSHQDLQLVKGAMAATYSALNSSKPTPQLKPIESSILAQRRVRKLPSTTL
Experiment [13] concerns the target NT-3 growth factor receptor (Homo sapiens, UniProt Q16288). Nature of the experiment: Selectivity interaction (KinomeScan (DiscoverX)) EUB0000618a NTRK3. The note with it: at 10 µM.

Serine/threonine-protein kinase 38 (Homo sapiens), sequence (Q15208 2-465 limits assumed): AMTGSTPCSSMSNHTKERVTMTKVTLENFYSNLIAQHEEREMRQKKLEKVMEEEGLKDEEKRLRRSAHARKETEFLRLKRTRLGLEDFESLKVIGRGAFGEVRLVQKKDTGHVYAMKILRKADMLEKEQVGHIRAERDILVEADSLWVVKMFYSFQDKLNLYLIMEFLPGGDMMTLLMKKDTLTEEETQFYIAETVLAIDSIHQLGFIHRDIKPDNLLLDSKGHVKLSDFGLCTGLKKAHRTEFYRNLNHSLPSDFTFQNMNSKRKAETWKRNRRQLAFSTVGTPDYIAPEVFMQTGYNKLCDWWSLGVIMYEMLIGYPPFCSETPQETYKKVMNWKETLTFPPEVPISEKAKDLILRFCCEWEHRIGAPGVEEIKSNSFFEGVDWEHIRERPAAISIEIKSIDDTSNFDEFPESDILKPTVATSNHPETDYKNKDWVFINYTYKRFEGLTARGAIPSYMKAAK
NT-3 growth factor receptor, sequence (Q16288 32-839 limits assumed): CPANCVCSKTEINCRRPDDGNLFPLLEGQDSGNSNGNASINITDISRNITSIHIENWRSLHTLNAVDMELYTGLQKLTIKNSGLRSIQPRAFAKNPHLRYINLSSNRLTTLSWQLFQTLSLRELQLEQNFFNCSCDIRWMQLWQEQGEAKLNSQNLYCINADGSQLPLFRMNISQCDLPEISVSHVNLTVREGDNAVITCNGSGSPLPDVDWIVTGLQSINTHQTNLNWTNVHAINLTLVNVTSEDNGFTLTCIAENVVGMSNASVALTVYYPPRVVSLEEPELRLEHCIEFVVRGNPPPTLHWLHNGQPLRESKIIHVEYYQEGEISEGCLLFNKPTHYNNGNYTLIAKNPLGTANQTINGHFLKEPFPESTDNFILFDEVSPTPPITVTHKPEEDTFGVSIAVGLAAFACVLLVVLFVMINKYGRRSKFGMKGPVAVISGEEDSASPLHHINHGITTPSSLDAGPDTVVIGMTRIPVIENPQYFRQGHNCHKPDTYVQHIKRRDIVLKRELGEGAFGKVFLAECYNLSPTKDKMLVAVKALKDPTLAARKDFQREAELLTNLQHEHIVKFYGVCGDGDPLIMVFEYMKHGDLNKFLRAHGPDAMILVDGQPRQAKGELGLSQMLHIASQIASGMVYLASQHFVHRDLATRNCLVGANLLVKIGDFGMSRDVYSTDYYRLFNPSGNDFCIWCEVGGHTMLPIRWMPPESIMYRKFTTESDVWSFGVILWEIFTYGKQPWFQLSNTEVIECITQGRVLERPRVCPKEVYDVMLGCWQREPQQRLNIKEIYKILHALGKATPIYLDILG

Compound `Cc1cc([C@@H](C)Nc2ccccc2C(=O)O)c2nc(N3CCOCC3)cc(=O)n2c1` [AZD-6482] displayed a % of control in experiment [1] of 100%.

On to `CN(C)C/C=C/C(=O)Nc1ccc(C(=O)N2CCCC(Nc3ncc(Cl)c(-c4c[nH]c5ccccc45)n3)C2)cc1` (stereo not drawn), for which the % of control in experiment [2] came to 14%.

For the compound `COc1cc(Nc2nc(C)cc(-c3cnn4nc(OC)ccc34)n2)cc(C(F)(F)F)c1`, the results for the % of control in experiment [3] and in experiment [4] were 100% and 80%, respectively.

As for `CN(C)CCOc1ccc(-c2nc(-c3ccncc3)c(-c3ccc4c(c3)CC/C4=N\O)[nH]2)cc1`, the % of control in experiment [5] was 100%.

Consider `C=CC(=O)Nc1cc(-n2c(=O)ccc3cnc4ccc(-c5ccc(NS(C)(=O)=O)cc5)cc4c32)ccc1C`, for which the % of control was found to be 25% in [6] (at 1 µM) and 2.6% in experiment [6] (at 10 µM).

Compound `Cn1cc(-n2cnc3c(NCc4nc5cc(Cl)c(Cl)cc5[nH]4)nc(N4CCOCC4)nc32)cn1` registered a % of control in experiment [7] of 3.23%.

On to `CNC(=O)Nc1ccc(-c2nc(N3CC4CCC(C3)O4)c3cnn(C4CCC5(CC4)OCCO5)c3n2)cc1`, for which the % of inhibition in [8] was found to be 16%.

As for `CC[C@@H]1[C@H](F)C(=O)N[C@@H]1COc1nccc2cc(C(N)=O)c(OC)cc12` [ZIMLOVISERTIB], the % of inhibition in experiment [9] (at 0.01 µM) is -3.8%; in experiment [9] (at 0.04 µM), 5.4%; in experiment [9] (at 0.2 µM), 31.8%; in experiment [9] (at 1 µM) it was 70.6%; in experiment [9] (at 5 µM) it was 90%; in experiment [10], 24.7%.

As for `COCC(=O)NC/C=C/c1ccc2ncnc(Nc3ccc(Oc4ccc(C)nc4)c(C)c3)c2c1` [CP-724714], the % of control in experiment [11] came out at 91%; in experiment [12], 100%.

`O[C@H]1CC[C@H](Nc2ncc3nc(Nc4c(F)cc(F)cc4F)n([C@H]4CCOC4)c3n2)CC1` returned a % of control in experiment [13] of 100%.
